Test system: Trichostrongylus axei
Experiment: Effect test for Trichostrongylus axei
Format: in vivo
Design: concentration or dose not given beside the values
Settings: test chemical solution B added to eggs in 96-well plate, unhatched eggs and inactive larvae counted 4 days after addition, 25°C, relative to untreated plot
Method: Agar medium with 1% potato dextrose was aliquoted into 60-µl portions in a 96-well plate, and 30 µl of sterilized water containing Trichostrongylus axei eggs and a freeze-dried Escherichia coli OP50 strain (five eggs, 10 µg/10 µl Escherichia coli) was added to each well. From above, 10 µl of test chemical solution B of the presently invented compound was added to each well, and the plate was left to stand under dark conditions at 25°C.

Structure (SMILES): O=C(Nc1ncc(Cl)cc1F)C1=C(O)CC(c2nc(-c3ccc(F)nc3)no2)NC1=O (stereo not drawn) [3-271]
- efficacy (%): ≥ 50%

Structure (SMILES): Cc1cccc(-c2cc(C3CC(O)=C(C(=O)Nc4ccc(Cl)nc4)C(=O)N3)cnc2Cl)c1 (stereo not drawn) [2-254]
- efficacy (%): ≥ 50%

Structure (SMILES): Cc1ccc(NC(=O)C2=C(O)CC(c3cnc(Cl)c(-c4cccc(C)c4)c3)NC2=O)nc1 (stereo not drawn) [2-273]
- efficacy (%): ≥ 50%

Structure (SMILES): Cn1nc(Cl)c(-c2noc(C3CC(O)=C(C(=O)Nc4ccc(F)cn4)C(=O)N3)n2)c1Cl (stereo not drawn) [3-114]
- efficacy (%): ≥ 50%

Structure (SMILES): O=C(Nc1ncc(Cl)cc1F)C1=C(O)CC(c2cnc(Cl)c(-c3ccc(F)cc3)c2)NC1=O (stereo not drawn) [2-232]
- efficacy (%): ≥ 50%

Structure (SMILES): O=C(Nc1ccc(Cl)nc1Cl)C1=C(O)CC(c2cnc(Cl)c(-c3ccc(F)nc3)c2)NC1=O (stereo not drawn) [2-128]
- efficacy (%): ≥ 50%

Structure (SMILES): O=C(Nc1ccc(Cl)cn1)C1=C(O)CC(c2nc(-c3cccc(F)c3)no2)NC1=O (stereo not drawn) [3-180]
- efficacy (%): ≥ 50%

Structure (SMILES): Cc1ccccc1-c1cc(C2CC(O)=C(C(=O)Nc3ccc(F)cn3)C(=O)N2)cnc1C(F)(F)F (stereo not drawn) [2-248]
- efficacy (%): ≥ 50%

Structure (SMILES): O=C(Nc1ccc(Cl)nc1)C1=C(O)CC(c2cnc(C(F)(F)F)c(-c3ccc(F)nc3)c2)NC1=O (stereo not drawn) [2-170]
- efficacy (%): ≥ 50%

Structure (SMILES): O=C(Nc1ccc(SC(F)(F)F)cc1)C1=C(O)CC(c2cnc(Cl)c(-c3ccc(F)nc3)c2)NC1=O (stereo not drawn) [2-038]
- efficacy (%): ≥ 50%

Structure (SMILES): O=C(Nc1ccc(F)cn1)C1=C(O)CC(c2nc(-c3cncs3)no2)NC1=O (stereo not drawn) [3-097]
- efficacy (%): ≥ 50%

Structure (SMILES): O=C(Nc1ccc(C(F)(F)F)cn1)C1=C(O)CC(c2cnc(C(F)(F)F)c(-c3ccc(F)nc3)c2)NC1=O (stereo not drawn) [2-179]
- efficacy (%): ≥ 50%

Structure (SMILES): Cc1cc(Cl)cnc1NC(=O)C1=C(O)CC(c2cnc(Cl)c(-c3ccc(F)nc3)c2)NC1=O (stereo not drawn) [2-130]
- efficacy (%): ≥ 50%

Structure (SMILES): CON=C(C)c1cccc(-c2noc(C3CC(O)=C(C(=O)Nc4ccc(F)cn4)C(=O)N3)n2)c1 (stereo not drawn) [3-125]
- efficacy (%): ≥ 50%

Structure (SMILES): Cc1cccc(-c2cc(C3CC(O)=C(C(=O)Nc4cc(C#N)ccn4)C(=O)N3)cnc2Cl)c1 (stereo not drawn) [2-262]
- efficacy (%): ≥ 50%

Structure (SMILES): O=C(Nc1ccc(Cl)cn1)C1=C(O)CC(c2cnc(C(F)(F)F)c(-c3ccc(F)nc3)c2)NC1=O (stereo not drawn) [2-169]
- efficacy (%): ≥ 50%

Structure (SMILES): COc1ccccc1-c1cc(C2CC(O)=C(C(=O)Nc3ccc(F)cn3)C(=O)N2)cnc1C(F)(F)F (stereo not drawn) [2-250]
- efficacy (%): ≥ 50%

Structure (SMILES): Cn1ccc(NC(=O)C2=C(O)CC(c3cnc(C(F)(F)F)c(-c4ccc(F)nc4)c3)NC2=O)n1 (stereo not drawn) [2-172]
- efficacy (%): ≥ 50%

Structure (SMILES): O=C(Nc1ccc(F)c(F)c1)C1=C(O)CC(c2nc(-c3ccc(F)nc3)no2)NC1=O (stereo not drawn) [3-274]
- efficacy (%): ≥ 50%

Structure (SMILES): Cc1cccc(-c2cc(C3CC(O)=C(C(=O)Nc4ccc(F)cn4)C(=O)N3)cnc2Cl)c1 (stereo not drawn) [2-252]
- efficacy (%): ≥ 50%

Structure (SMILES): Cc1cc(-c2noc(C3CC(O)=C(C(=O)Nc4cc(C(F)(F)F)n(C)n4)C(=O)N3)n2)ccn1 (stereo not drawn) [3-275]
- efficacy (%): ≥ 50%

Structure (SMILES): O=C(Nc1ccc(F)nc1)C1=C(O)CC(c2nc(-c3ccc(F)cc3)no2)NC1=O (stereo not drawn) [3-082]
- efficacy (%): ≥ 50%

Structure (SMILES): O=C(Nc1ccc(F)cn1)C1=C(O)CC(c2cnc(C(F)(F)F)c(-c3ccccc3F)c2)NC1=O (stereo not drawn) [2-249]
- efficacy (%): ≥ 50%

Structure (SMILES): O=C(Nc1ccc(C(F)(F)F)nc1)C1=C(O)CC(c2cnc(Cl)c(-c3ccc(F)cc3)c2)NC1=O (stereo not drawn) [2-234]
- efficacy (%): ≥ 50%

Structure (SMILES): O=C(Nc1ccc(Cl)cn1)C1=C(O)CC(c2cnc(Cl)c(-c3ccc(F)cc3)c2)NC1=O (stereo not drawn) [2-220]
- efficacy (%): ≥ 50%

Structure (SMILES): N#Cc1ccc(NC(=O)C2=C(O)CC(c3cnc(Cl)c(-c4ccc(F)nc4)c3)NC2=O)nc1 (stereo not drawn) [2-088]
- efficacy (%): ≥ 50%

Structure (SMILES): Cc1cc(NC(=O)C2=C(O)CC(c3nc(-c4ccnc(F)c4)no3)NC2=O)on1 (stereo not drawn) [3-121]
- efficacy (%): ≥ 50%

Structure (SMILES): O=C(Nc1ccc(F)cn1)C1=C(O)CC(c2cnc(C(F)(F)F)c(-c3cccnc3)c2)NC1=O (stereo not drawn) [2-251]
- efficacy (%): ≥ 50%

Structure (SMILES): Cn1nc(Cl)c(-c2noc(C3CC(O)=C(C(=O)Nc4nccs4)C(=O)N3)n2)c1Cl (stereo not drawn) [3-171]
- efficacy (%): ≥ 50%

Structure (SMILES): Cc1ccc(NC(=O)C2=C(O)CC(c3nc(-c4ccccc4F)no3)NC2=O)nc1 (stereo not drawn) [3-129]
- efficacy (%): ≥ 50%

Structure (SMILES): O=C(Nc1ncc(Cl)nc1Cl)C1=C(O)CC(c2cnc(Cl)c(-c3ccc(F)nc3)c2)NC1=O (stereo not drawn) [2-131]
- efficacy (%): ≥ 50%

Structure (SMILES): O=C(Nc1ccc(C(F)(F)F)cn1)C1=C(O)CC(c2cnc(Cl)c(-c3cncc(F)c3)c2)NC1=O (stereo not drawn) [2-056]
- efficacy (%): ≥ 50%

Structure (SMILES): COc1ccc(-c2noc(C3CC(O)=C(C(=O)Nc4ccc(F)cn4)C(=O)N3)n2)cc1 (stereo not drawn) [3-137]
- efficacy (%): ≥ 50%

Structure (SMILES): Cn1ccc(-c2noc(C3CC(O)=C(C(=O)Nc4ccc(F)cn4)C(=O)N3)n2)n1 (stereo not drawn) [3-085]
- efficacy (%): ≥ 50%

Structure (SMILES): O=C(Nc1ccc(F)cn1)C1=C(O)CC(c2nc(-c3ccsc3)no2)NC1=O (stereo not drawn) [3-110]
- efficacy (%): ≥ 50%

Structure (SMILES): O=C(Nc1ccc(Br)c(F)n1)C1=C(O)CC(c2cnc(Cl)c(-c3ccc(F)nc3)c2)NC1=O (stereo not drawn) [2-132]
- efficacy (%): ≥ 50%

Structure (SMILES): O=C(Nc1ccc(Cl)nc1)C1=C(O)CC(c2cnc(Cl)c(-c3ccc(F)cc3)c2)NC1=O (stereo not drawn) [2-221]
- efficacy (%): ≥ 50%

Structure (SMILES): O=C(Nc1cccnn1)C1=C(O)CC(c2cnc(Cl)c(-c3ccc(F)nc3)c2)NC1=O (stereo not drawn) [2-289]
- efficacy (%): ≥ 50%

Structure (SMILES): O=C(Nc1ccc(F)cn1)C1=C(O)CC(c2nc(-c3ccc(F)c(Cl)c3)no2)NC1=O (stereo not drawn) [3-141]
- efficacy (%): ≥ 50%

Structure (SMILES): O=C(Nc1ccc(Br)cn1)C1=C(O)CC(c2cnc(C(F)(F)F)c(-c3ccc(F)nc3)c2)NC1=O (stereo not drawn) [2-177]
- efficacy (%): ≥ 50%

Structure (SMILES): Cn1nc(Cl)c(-c2noc(C3CC(O)=C(C(=O)Nc4ccccn4)C(=O)N3)n2)c1Cl (stereo not drawn) [3-170]
- efficacy (%): ≥ 50%

Structure (SMILES): Cc1cccc(-c2cc(C3CC(O)=C(C(=O)Nc4ccc(C#N)nc4)C(=O)N3)cnc2Cl)c1 (stereo not drawn) [2-266]
- efficacy (%): ≥ 50%

Structure (SMILES): Cc1ccc(NC(=O)C2=C(O)CC(c3nc(-c4cccc(F)c4)no3)NC2=O)nc1 (stereo not drawn) [3-128]
- efficacy (%): ≥ 50%

Structure (SMILES): O=C(Nc1ccc(Cl)nc1)C1=C(O)CC(c2nc(-c3ccnc(F)c3)no2)NC1=O (stereo not drawn) [3-060]
- efficacy (%): ≥ 50%

Structure (SMILES): O=C(Nc1ccc(F)cn1)C1=C(O)CC(c2nc(-c3cc(F)c(F)c(F)c3)no2)NC1=O (stereo not drawn) [3-138]
- efficacy (%): ≥ 50%

Structure (SMILES): O=C(Nc1ccc(F)cn1)C1=C(O)CC(c2nc(-c3ccncc3F)no2)NC1=O (stereo not drawn) [3-064]
- efficacy (%): ≥ 50%

Structure (SMILES): Cc1cccc(-c2cc(C3CC(O)=C(C(=O)Nc4ncccc4C)C(=O)N3)cnc2Cl)c1 (stereo not drawn) [2-272]
- efficacy (%): ≥ 50%

Structure (SMILES): Cc1cc(NC(=O)C2=C(O)CC(c3cnc(Cl)c(-c4ccc(F)nc4)c3)NC2=O)cnc1Cl (stereo not drawn) [2-129]
- efficacy (%): ≥ 50%

Structure (SMILES): O=C(Nc1ccc(F)cn1)C1=C(O)CC(c2cnc(C(F)(F)F)c(-c3cccc(F)c3)c2)NC1=O (stereo not drawn) [2-246]
- efficacy (%): ≥ 50%

Structure (SMILES): COc1ccc(-c2cc(C3CC(O)=C(C(=O)Nc4ccc(F)cn4)C(=O)N3)cnc2C(F)(F)F)cc1 (stereo not drawn) [2-245]
- efficacy (%): ≥ 50%

Structure (SMILES): Cc1ccc(NC(=O)C2=C(O)CC(c3cnc(Cl)c(-c4cccc(C)c4)c3)NC2=O)nc1 (stereo not drawn) [2-255]
- efficacy (%): ≥ 50%

Structure (SMILES): O=C(Nc1ccc(F)cn1)C1=C(O)CC(c2nc(-c3ncc(C(F)(F)F)cc3Cl)no2)NC1=O (stereo not drawn) [3-148]
- efficacy (%): ≥ 50%

Structure (SMILES): Cc1ccc(NC(=O)C2=C(O)CC(c3cnc(C(F)(F)F)c(-c4ccc(F)nc4)c3)NC2=O)nc1 (stereo not drawn) [2-171]
- efficacy (%): ≥ 50%

Structure (SMILES): Cn1nccc1NC(=O)C1=C(O)CC(c2cnc(Cl)c(-c3ccc(F)cc3)c2)NC1=O (stereo not drawn) [2-290]
- efficacy (%): ≥ 50%

Reference: patent EP4582413A1, “ARYLTETRAHYDROPYRIDINE COMPOUND AND PEST CONTROL AGENT” (priority 2022, dated 2024)
